Experimental data as given in patent publication US12415794B2 (Edgewise Therapeutics, Inc., priority 2018, dated 2025).

What was measured:
[1] = biological target: skeletal myofibrils (myosin ATPase); assay: Skeletal Myofibril ATPase Assay; type: biochemical
How it was run: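 Rates of NADH loss (A340, kinetic read over 45 min) report ADP generation by myofibrillar myosin, coupled through pyruvate kinase and lactate dehydrogenase; pCa buffer at pH 7.0. IC50 fitted by 4-parameter logistic after normalizing to 1% DMSO controls; cardiac myofibrils served for selectivity.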

[2] = biological target: T1, cardiac myofibrils (myosin ATPase); assay: Cardiac Myofibril ATPase Assay (counter screen); type: biochemical; details: myofibrils 1.0 mg/mL, KCl omitted
T1 construct: frozen myofibril pellets obtained from cardiac tissue; from tissue
How it was run: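 Myosin ATPase rate followed via NADH disappearance at 340 nm, coupled through pyruvate kinase and lactate dehydrogenase, using cardiac myofibril pellets (final 1.0 mg/mL) without KCl. IC50 values reflect rate reduction compared with vehicle-treated wells.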

T1 sequence (P12883 whole entry): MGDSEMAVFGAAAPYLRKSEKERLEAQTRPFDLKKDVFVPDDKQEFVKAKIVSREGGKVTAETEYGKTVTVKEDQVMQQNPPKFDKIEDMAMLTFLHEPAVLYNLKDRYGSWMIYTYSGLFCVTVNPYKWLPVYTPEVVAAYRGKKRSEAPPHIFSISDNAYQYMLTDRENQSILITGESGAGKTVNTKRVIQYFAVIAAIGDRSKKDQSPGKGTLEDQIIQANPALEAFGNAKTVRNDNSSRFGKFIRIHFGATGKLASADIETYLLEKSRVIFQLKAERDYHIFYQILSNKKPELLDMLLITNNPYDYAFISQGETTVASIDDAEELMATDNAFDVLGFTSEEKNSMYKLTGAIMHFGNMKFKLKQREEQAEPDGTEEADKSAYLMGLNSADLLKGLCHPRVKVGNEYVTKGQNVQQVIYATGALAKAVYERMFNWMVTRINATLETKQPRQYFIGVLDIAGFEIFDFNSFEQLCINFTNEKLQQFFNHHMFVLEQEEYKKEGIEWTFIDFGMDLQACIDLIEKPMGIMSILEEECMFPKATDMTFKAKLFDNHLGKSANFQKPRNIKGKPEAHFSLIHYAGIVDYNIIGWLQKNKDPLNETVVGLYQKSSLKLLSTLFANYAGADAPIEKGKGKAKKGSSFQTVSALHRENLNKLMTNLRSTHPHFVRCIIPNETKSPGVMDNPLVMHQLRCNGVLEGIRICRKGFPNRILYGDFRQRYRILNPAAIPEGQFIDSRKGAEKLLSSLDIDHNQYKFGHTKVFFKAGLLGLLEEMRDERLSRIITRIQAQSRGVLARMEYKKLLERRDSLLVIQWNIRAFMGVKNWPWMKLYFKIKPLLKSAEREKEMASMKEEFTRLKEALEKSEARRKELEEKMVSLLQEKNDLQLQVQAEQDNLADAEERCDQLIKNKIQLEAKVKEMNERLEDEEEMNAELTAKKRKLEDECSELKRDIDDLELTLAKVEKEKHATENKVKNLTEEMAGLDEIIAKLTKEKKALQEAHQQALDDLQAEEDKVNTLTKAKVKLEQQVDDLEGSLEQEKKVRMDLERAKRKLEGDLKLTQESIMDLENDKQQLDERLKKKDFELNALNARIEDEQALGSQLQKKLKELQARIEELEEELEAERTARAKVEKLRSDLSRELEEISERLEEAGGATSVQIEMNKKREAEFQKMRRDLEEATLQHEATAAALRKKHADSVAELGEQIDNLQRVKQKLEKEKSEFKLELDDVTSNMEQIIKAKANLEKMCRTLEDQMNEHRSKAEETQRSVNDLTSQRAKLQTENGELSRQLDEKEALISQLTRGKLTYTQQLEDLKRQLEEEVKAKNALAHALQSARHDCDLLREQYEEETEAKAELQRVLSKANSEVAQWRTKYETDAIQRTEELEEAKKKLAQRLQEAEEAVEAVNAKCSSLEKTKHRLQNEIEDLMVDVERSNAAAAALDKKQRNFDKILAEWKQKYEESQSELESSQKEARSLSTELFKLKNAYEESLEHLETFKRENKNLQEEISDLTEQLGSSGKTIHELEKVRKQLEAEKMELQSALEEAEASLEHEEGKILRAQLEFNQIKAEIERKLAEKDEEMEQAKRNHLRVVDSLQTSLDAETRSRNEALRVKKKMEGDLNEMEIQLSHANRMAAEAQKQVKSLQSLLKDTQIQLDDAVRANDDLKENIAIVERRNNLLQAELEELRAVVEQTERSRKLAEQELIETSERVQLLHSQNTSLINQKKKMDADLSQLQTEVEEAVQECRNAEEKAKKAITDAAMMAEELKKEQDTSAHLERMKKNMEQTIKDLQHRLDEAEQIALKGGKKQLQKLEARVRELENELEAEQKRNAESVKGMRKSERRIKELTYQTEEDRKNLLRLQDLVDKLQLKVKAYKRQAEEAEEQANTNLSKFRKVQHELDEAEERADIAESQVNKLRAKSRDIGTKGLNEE
T1 sequence (P08590 whole entry partner): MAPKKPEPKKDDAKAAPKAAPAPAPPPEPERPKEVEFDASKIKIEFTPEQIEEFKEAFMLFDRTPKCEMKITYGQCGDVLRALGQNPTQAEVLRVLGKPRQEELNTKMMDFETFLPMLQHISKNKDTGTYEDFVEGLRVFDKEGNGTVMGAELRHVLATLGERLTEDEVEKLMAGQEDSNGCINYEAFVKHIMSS
T1 sequence (P10916 whole entry partner): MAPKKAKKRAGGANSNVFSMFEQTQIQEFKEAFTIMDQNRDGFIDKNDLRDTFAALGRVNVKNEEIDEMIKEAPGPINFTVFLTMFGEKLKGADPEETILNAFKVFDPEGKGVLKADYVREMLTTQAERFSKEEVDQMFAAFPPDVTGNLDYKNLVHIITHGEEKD

Row | IC50 ([1]; Table 4C) | IC50 ([2]; Table 5C) | IC50 ([1]; Table 4A) | IC50 ([2]; Table 5A) | Compound | also measured
1 | < 10 µM | > 100 µM |  |  | CCc1ccc(-c2ccc(=O)n(CC(=O)NCc3ccccc3Cl)n2)cc1 [IIIa-18, N-(2-chlorobenzyl)-2-(3-(4-ethylphenyl)-6-oxopyridazin-1(6H)-yl)acetamide] | 
2 | 10 to 100 µM | > 100 µM |  |  | COc1ccc(-c2ccc(=O)n(CC(=O)NCc3ccco3)n2)cc1 [IIIb-37, N-(furan-2-ylmethyl)-2-(3-(4-methoxyphenyl)-6-oxopyridazin-1(6H)-yl)acetamide] | 
3 |  |  | > 100 µM | > 100 µM | N-cyclobutyl-2-[3-[2-(2-methylpropoxy)pyrimidin-5-yl]-6-oxopyridazin-1-yl]acetamide [Compound I-79] | 
4 |  |  |  |  | O=C(Cn1nc(-c2ccc(OCC(F)(F)F)cc2)ccc1=O)N1CCC1c1ccccc1 (centres unmarked) [II-23, 2-(2-oxo-2-(2-phenylazetidin-1-yl)ethyl)-6-(4-(2,2,2-trifluoroethoxy)phenyl)pyridazin-3(2H)-one] | IC50 ([1]; Table 4B): < 10 µM; IC50 ([2]; Table 5B): > 100 µM
5 | < 10 µM | > 100 µM |  |  | COc1ccc(-c2ccc(=O)n(CC(=O)NCc3cccc(C)c3)n2)cc1 [IIIa-10, 2-(3-(4-methoxyphenyl)-6-oxopyridazin-1(6H)-yl)-N-(3-methylbenzyl) acetamide] | 
6 | < 10 µM | > 100 µM |  |  | COc1ccc(-c2ccc(=O)n(CC(=O)NCCC3=CCCCC3)n2)c(F)c1 [IIIb-7, N-(2-(cyclohex-1-en-1-yl)ethyl)-2-(3-(2-fluoro-4-methoxyphenyl)-6-oxopyridazin-1(6H)-yl)acetamide] | 
7 | > 100 µM | > 100 µM |  |  | COc1ccc(-c2ccc(=O)n(CC(=O)NCCC(C)C)n2)cc1 [IIIb-48, N-isopentyl-2-(3-(4-methoxyphenyl)-6-oxopyridazin-1(6H)-yl)acetamide] | 
8 | > 100 µM | > 100 µM |  |  | COc1ccc(-c2ccc(=O)n(CC(=O)NCc3cnccn3)n2)cc1 [IIIa-28, 2-(3-(4-methoxyphenyl)-6-oxopyridazin-1(6H)-yl)-N-(pyrazin-2-ylmethyl)acetamide] | 
9 |  |  | < 10 µM | > 100 µM | CCNC(=O)Cn1nc(-c2cnc(Nc3ccc(F)cc3)nc2)ccc1=O [Compound I-2, N-ethyl-2-(3-(2-((4-fluorophenyl)amino)pyrimidin-5-yl)-6-oxopyridazin-1(6H)-yl)acetamide] | 
10 |  |  | < 10 µM | > 100 µM | CCCOc1ncc(-c2ccc(=O)n(CC(=O)NC3CCC3)n2)cn1 [Compound I-73, N-cyclobutyl-2-(6-oxo-3-(2-propoxypyrimidin-5-yl)pyridazin-1(6H)-yl)acetamide] | 
11 | > 100 µM | > 100 µM |  |  | COc1ccc(Cl)cc1NC(=O)Cn1nc(-c2ccccc2)ccc1=O [IIIc-62, N-(5-chloro-2-methoxyphenyl)-2-(6-oxo-3-phenylpyridazin-1(6H)-yl)acetamide] | 
12 | > 100 µM | > 100 µM |  |  | CCOc1ccc(-c2ccc(=O)n(CCNC(=O)CC3CCCC3)n2)cc1 [IIIb-43, 2-cyclopentyl-N-(2-(3-(4-ethoxyphenyl)-6-oxopyridazin-1(6H)-yl)ethyl)acetamide] | 
13 |  |  | < 10 µM | > 100 µM | O=C(Cn1nc(-c2cnc(OCC(F)(F)F)nc2)ccc1=O)NC12CC(C1)C2 [Compound I-51, N-(bicyclo[1.1.1]pentan-1-yl)-2-(6-oxo-3-(2-(2,2,2-trifluoroethoxy)pyrimidin-5-yl)pyridazin-1(6H)-yl)acetamide] | 
14 | 10 to 100 µM | > 100 µM |  |  | CC(C)NC(=O)Cn1nc(-c2ccc(Br)cc2)ccc1=O [IIIc-40, 2-(3-(4-bromophenyl)-6-oxopyridazin-1(6H)-yl)-N-isopropylacetamide] | 
15 |  |  | < 10 µM | > 100 µM | CCNC(=O)Cn1nc(-c2cnc(Nc3ccc(Cl)cc3)nc2)ccc1=O [Compound I-1, 2-(3-(2-((4-chlorophenyl)amino)pyrimidin-5-yl)-6-oxopyridazin-1(6H)-yl)-N-ethylacetamide] | 
16 | 10 to 100 µM | > 100 µM |  |  | O=C(Cn1nc(-c2ccccc2)ccc1=O)Nc1ccccc1Cl [IIIc-56, N-(2-chlorophenyl)-2-(6-oxo-3-phenylpyridazin-1(6H)-yl)acetamide] | 
17 | 10 to 100 µM | > 100 µM |  |  | COc1ccc(NC(=O)Cn2nc(-c3ccc(F)cc3)ccc2=O)c(OC)c1 [IIIc-31, N-(2,4-dimethoxyphenyl)-2-(3-(4-fluorophenyl)-6-oxopyridazin-1(6H)-yl)acetamide] | 
18 |  |  |  |  | O=C(Cn1nc(-c2ccc(OCC(F)(F)F)cc2)ccc1=O)NCc1ccc(CO)cc1 [II-24, N-(4-(hydroxymethyl)benzyl)-2-(6-oxo-3-(4-(2,2,2-trifluoroethoxy)phenyl)pyridazin-1(6H)-yl)acetamide] | IC50 ([1]; Table 4B): > 100 µM; IC50 ([2]; Table 5B): > 100 µM
19 | < 10 µM | > 100 µM |  |  | COc1ccc(-c2ccc(=O)n(CC(=O)NCc3ccc(Cl)cc3Cl)n2)cc1 [IIIa-12, N-(2,4-dichlorobenzyl)-2-(3-(4-methoxyphenyl)-6-oxopyridazin-1(6H)-yl)acetamide] | 

Row | IC50 ([1]; Table 4C) | IC50 ([2]; Table 5C) | IC50 ([1]; Table 4A) | IC50 ([2]; Table 5A) | Compound | also measured
20 | 10 to 100 µM | > 100 µM |  |  | Cc1ccc(-c2ccc(=O)n(CC(=O)NC3CCCC3)n2)cc1 [IIIc-5, N-cyclopentyl-2-(6-oxo-3-(p-tolyl)pyridazin-1(6H)-yl)acetamide] | 
21 |  |  |  |  | O=C(Cn1nc(-c2ccc(OCC(F)(F)F)cc2)ccc1=O)N1CC(c2ccccc2)C1 [II-22, 2-(2-oxo-2-(3-phenylazetidin-1-yl)ethyl)-6-(4-(2,2,2-trifluoroethoxy)phenyl)pyridazin-3(2H)-one] | IC50 ([1]; Table 4B): < 10 µM; IC50 ([2]; Table 5B): > 100 µM
22 | > 100 µM | > 100 µM |  |  | CC(C)NC(=O)Cn1nc(-c2ccccc2)ccc1=O [IIIc-63, N-isopropyl-2-(6-oxo-3-phenylpyridazin-1(6H)-yl)acetamide] | 
23 | < 10 µM | > 100 µM |  |  | COc1ccc(-c2ccc(=O)n(CC(=O)NCc3ccc(Cl)cc3)n2)cc1 [IIIa-17, N-(4-chlorobenzyl)-2-(3-(4-methoxyphenyl)-6-oxopyridazin-1(6H)-yl)acetamide] | 
24 | 10 to 100 µM | > 100 µM |  |  | COc1ccc(-c2ccc(=O)n(CC(=O)NC(C)CCc3ccccc3)n2)c(F)c1 (centres unmarked) [IIIb-36, 2-(3-(2-fluoro-4-methoxyphenyl)-6-oxopyridazin-1(6H)-yl)-N-(4-phenylbutan-2-yl)acetamide] | 
25 | > 100 µM | > 100 µM |  |  | COc1ccc(-c2ccc(=O)n(CC(=O)NCc3cccc(F)c3)n2)c(F)c1 [IIIb-55, 2-(3-(2-fluoro-4-methoxyphenyl)-6-oxopyridazin-1(6H)-yl)-N-(3-fluorobenzyl)acetamide] | 
26 |  |  | 10 to 100 µM | > 100 µM | CC(C)[C@@](C)(C#N)NC(=O)Cn1nc(-c2ccc(OC(F)F)nc2)ccc1=O (stereo in doubt) [Compound I-34, N-(2-cyano-3-methylbutan-2-yl)-2-(3-(6-(difluoromethoxy)pyridin-3-yl)-6-oxopyridazin-1(6H)-yl)acetamide] | 
27 | > 100 µM | > 100 µM |  |  | COc1ccc(-c2ccc(=O)n(CC(=O)NC3CCCC3)n2)cc1OC [IIIb-45, N-cyclopentyl-2-(3-(3,4-dimethoxyphenyl)-6-oxopyridazin-1(6H)-yl)acetamide] | 
28 |  |  | 10 to 100 µM | > 100 µM | CCNC(=O)Cn1nc(-c2ccc(OCC(F)(F)F)nc2)ccc1=O [Compound I-13, N-ethyl-2-(6-oxo-3-(6-(2,2,2-trifluoroethoxy)pyridin-3-yl)pyridazin-1(6H)-yl)acetamide] | 
29 | < 10 µM | > 100 µM |  |  | CCNC(=O)Cn1nc(-c2ccc(C3CC3)cc2)ccc1=O [IIIa-19] | 
30 |  |  | < 10 µM | > 100 µM | COc1ccc(-c2ccc(=O)n(CC(=O)NCc3ccccc3Cl)n2)cn1 [Compound I-5, N-(2-chlorobenzyl)-2-(3-(6-methoxypyridin-3-yl)-6-oxopyridazin-1(6H)-yl)acetamide] | 
31 |  |  | < 10 µM | > 100 µM | CCNC(=O)Cn1nc(-c2cnc(NC34CC(C3)C4)nc2)ccc1=O [Compound I-59, 2-(3-(2-(bicyclo[1.1.1]pentan-1-ylamino)pyrimidin-5-yl)-6-oxopyridazin-1(6H)-yl)-N-ethylacetamide] | 
32 |  |  | 10 to 100 µM | > 100 µM | CCNC(=O)Cn1nc(-c2ccc(C3CC3)nc2)ccc1=O [Compound I-12, 2-(3-(6-cyclopropylpyridin-3-yl)-6-oxopyridazin-1(6H)-yl)-N-ethylacetamide] | 
33 | < 10 µM | > 100 µM |  |  | COc1ccc(-c2ccc(=O)n(CC(=O)Nc3ccc4c(c3)OCCO4)n2)c(F)c1 [IIIb-15, N-(2,3-dihydrobenzo[b][1,4]dioxin-6-yl)-2-(3-(2-fluoro-4-methoxyphenyl)-6-oxopyridazin-1(6H)-yl)acetamide] | 
34 |  |  | 10 to 100 µM | > 100 µM | CCNC(=O)Cn1nc(-c2ccc(NC3CC(F)(F)C3)nc2)ccc1=O [Compound I-74, 2-(3-(6-((3,3-difluorocyclobutyl)amino)pyridin-3-yl)-6-oxopyridazin-1(6H)-yl)-N-ethylacetamide] | 
35 |  |  | < 10 µM | > 100 µM | CC[C@@H](C)NC(=O)Cn1nc(-c2ccc(OC(F)F)nc2)ccc1=O [Compound I-66, (R)-N-(sec-butyl)-2-(3-(6-(difluoromethoxy)pyridin-3-yl)-6-oxopyridazin-1(6H)-yl)acetamide] | 
36 |  |  |  |  | O=C(Cn1nc(-c2ccc(OC(F)F)cc2)ccc1=O)NCc1ccccc1Cl [II-3, N-(2-chlorobenzyl)-2-(3-(4-(difluoromethoxy)phenyl)-6-oxopyridazin-1(6H)-yl)acetamide] | IC50 ([1]; Table 4B): < 10 µM; IC50 ([2]; Table 5B): > 100 µM
37 | < 10 µM | > 100 µM |  |  | COc1ccc(-c2ccc(=O)n(CC(=O)NCCc3ccccc3)n2)cc1 [IIIa-5, 2-(3-(4-methoxyphenyl)-6-oxopyridazin-1(6H)-yl)-N-phenethylacetamide] | 
